# Experimental data: patent US4996237A, “Combretastatin A-4” (Arizona Board of Regents, priority 1988, dated 1991)
# “Also recorded” adds a separate entry of the source.
# Legend:
# [1] = tested on: HCT-15 human colon cancer cell line; assay: growth inhibition of human colon cancer cell line HCT-15; format: cell-based; conditions: read-out: ED50, HCT-15
# [2] = tested on: DLD-1 human colon cancer cell line; assay: growth inhibition of human colon cancer cell line DLD-1; format: cell-based; conditions: read-out: ED50, DLD-1
# [3] = tested on: tubulin; assay: inhibition of colchicine binding to tubulin; conditions: competes with combretastatin A-1
# [4] = tested on: L1210 lymphocytic leukemia cell line; assay: growth inhibition of murine L1210 lymphocytic leukemia cell line; format: cell-based
# [5] = tested on: VoLo human colon cancer cell line; assay: growth inhibition of human colon cancer cell line VoLo; format: cell-based; conditions: read-out: ED50, VoLo
# [6] = tested on: tubulin; assay: inhibition of microtubule assembly / tubulin polymerization; format: biochemical
# [7] = antimitotic activity; conditions: among the Combretum caffrum constituents
# [8] = tested on: P388 lymphocytic leukemia cell line; assay: growth inhibition of murine P388 lymphocytic leukemia cell line (PS system); format: cell-based
# [9] = tested on: tubulin; conditions: previously isolated from Combretum caffrum; cited from earlier work
smiles,measurement,setting,value
COc1ccc(/C=C\c2cc(OC)c(OC)c(OC)c2)cc1O [Combretastatin A-4],IC50,[1],[…]
same,activity against L1210 cell line (in words),[4],significantly active
same,IC50,"[4]; Mus musculus, L1210, read-out: ED50, growth of L1210 cell line",< 0.003 µg/mL
same,antimitotic activity (in words),[7],strongest antimitotic agent
same,activity against P388 cell line (in words),[8],significantly active
same,IC50,"[8]; Mus musculus, P388, read-out: ED50, growth of P388 cell line",< 0.003 µg/mL
COc1ccc(/C=C\c2cc(OC)c3c(c2)OCO3)cc1O [combretastatin A-2],"inhibition of microtubule assembly (in words), earlier isolated substances",[9],potent inhibitors of microtubule assembly
COc1ccc(/C=C/c2cc(OC)c(OC)c(OC)c2)cc1O [trans-isomer],activity against L1210 cell line (in words),[4],significantly active
same,activity against P388 cell line (in words),[8],significantly active
COc1ccc(/C=C\c2cc(OC)c(OC)c(OC)c2)c(O)c1O [combretastatin A-1],"inhibition of microtubule assembly (in words), earlier isolated substances",[9],potent inhibitors of microtubule assembly
